Experiments:
[1] = Diazepam plasma PK after single-dose IM administration of AVF to dogs, Study 1 (Example 1)
[2] = Diazepam plasma PK after single-dose SQ administration of AVF to dogs (Example 1); settings: mean; single-dose SQ approx. 1.9 mg/kg avizafone; NCA
[3] = Diazepam plasma PK after single-dose IM administration of more concentrated AVF to dogs, Study 2 (Example 2); settings: for AUClast/D (diazepam) / Cmax/D (diazepam): N=6, 0.0952 mol/L AVF, NCA
beagle dogs = assay: Time to onset of sedation after IM administration of AVF in a canine model; format: in vivo
[4] = geometric mean, N=6, Study 1, IM, NCA
[5] = mean, N=6, Study 1, IM, NCA, Table 5
[6] = pooled without and with niacin, IM vs SQ

Avizafone
mean K01 (input rate constant) for DZP ([1]; Study 1, IM, compartment modeling): 0.2289 min⁻¹
AUClast/D (diazepam) [1, 4]: 22243 (min*ng/mL)/(mg/kg)
Cmax/D (diazepam) [1, 4]: 650 (ng/mL)/(mg/kg)
AUClast/D (diazepam) [1, 5]: 22637 (min*ng/mL)/(mg/kg)
Cmax/D (diazepam) [1, 5]: 702 (ng/mL)/(mg/kg)
V/F (diazepam) ([1]; mean, single-dose IM approx. 1.6 to 1.8 mg/kg avizafone, NCA): 1.435 L/kg
Cmax/D (diazepam) ([1]; mean, single-dose IM approx. 1.6 to 1.8 mg/kg avizafone, NCA, Table 2): 397 (ng/mL)/(mg/kg)
AUClast/D (diazepam) ([1]; median, N=6, Study 1, IM, NCA): 22225 (min*ng/mL)/(mg/kg)
Cmax/D (diazepam) ([1]; median, N=6, Study 1, IM, NCA): 574 (ng/mL)/(mg/kg)
DZP AUClast/D higher following IM than following SQ administration [1, 6]: 1.43 fold
DZP Cmax/D higher following IM than following SQ administration [1, 6]: 1.50 fold
Cmax/D (diazepam) [2]: 264 (ng/mL)/(mg/kg)
V/F (diazepam) [2]: 2.432 L/kg
shorter Tmax in Study 2 than in Study 1 ([3]; 3-fold higher injection solution concentration, 3-fold smaller injection volume, IM): 3 fold
mean K01 higher in Study 2 compared to Study 1 ([3]; IM, Study 2 vs Study 1, compartment modeling): 4.2 fold
mean K01 (input rate constant) for DZP ([3]; Study 2, IM, compartment modeling): 0.9501 min⁻¹
AUClast/D (diazepam) ([3]; geometric mean, Study 2, IM): 22101 (min*ng/mL)/(mg/kg)
Cmax/D (diazepam) ([3]; geometric mean, Study 2, IM): 644 (ng/mL)/(mg/kg)
AUClast/D (diazepam) ([3]; mean, Study 2, IM): 22176 (min*ng/mL)/(mg/kg)
Cmax/D (diazepam) ([3]; mean, Study 2, IM): 656 (ng/mL)/(mg/kg)
AUClast/D (diazepam) ([3]; median, Study 2, IM): 21903 (min*ng/mL)/(mg/kg)
Cmax/D (diazepam) ([3]; median, Study 2, IM): 605 (ng/mL)/(mg/kg)
median time for onset of sedation (beagle dogs; Study 1, IM, less concentrated AVF formulations (mean 0.0300 mol/L)): greater than 45 minutes
median time for onset of sedation (beagle dogs; Study 2, IM, more concentrated formulation (0.0952 mol/L)): approximately 10 minutes
